Patent US7875601B2, “Cancer treatment with epothilones” (Novartis AG, priority 1998, dated 2011)
Several values for one entry are separate records, joined by “and”; a condition that tells them apart may be missing. Identical values can stand only once. Entries after “also recorded” stand apart in the source; their conditions may differ. Marks after values point to notes of the source that are not given here.

Assays:
[1] = system: A549 non-small cell lung tumors; assay: Antitumor activity on A549 tumors, once weekly dosing (Example 8); format: in vivo, outbred athymic (nu/nu) mice; conditions: for body weight loss: 3 weeks experiment, reversible
Source text: Materials and methods pertaining to the human tumor xenograft model are as previously described.
Measurements are taken for an additional 2 weeks after completion of the regular 3 weeks experiments, to evaluate reversibility of drug-induced body weight loss, and sustainability of antitumor effects.

[2] = Determination of the single i.v. dose MTD in female BALB/c nude mice; format: in vivo
Procedure: The Maximal Tolerated Dose (MTD) is determined according to standard procedures; preferably, in warm-blooded animals the MTD in case of oral or intravenous administration is determined as the Dose of a single administration where no death occurs and a loss of body weight of less than 40, preferably less than 25, percent (%) is found in the treated warm-blooded animal individual (this term here mainly referring to an animal; for humans see below).
For the MTD determination, female BALB/c nude mice or BALB/c mice (obtained from Novartis Animal Farm, Sisseln, Switzerland) are treated once intravenously with epothilone B (n=3 per dose group). The dosage is increased (2, 4, 6, 8, 10 and 12 mg/kg) and the mice are observed for the presentation of overt toxic effects for 10 days after drug treatment.

[3] = system: human HCT-15 colon carcinoma; assay: Antitumor effect against s.c. transplanted HCT-15 tumors; format: in vivo, female BALB/c nude mice
Source text: Human colorectal adenocarcinoma cell line HCT-15 (ATCC CCL 225) is from the American Type Culture Collection (Rockville, Md., USA), and the cells are cultivated in vitro as recommended by the supplier. HCT-15 is an epithelial-like cell line. (Cancer Res. 39: 1020-25 [1979]) that is multi-drug resistant by virtue of over-expression of P-glycoprotein (P-gp, gp170, MDR-1;Anticancer Res. 11: 1309-12 [1991]; J. Biol. Chem. 264: 18031-40 [1989]; Int. J. Cancer 1991; 49: 696-703 [1991]) and glutathione-dependent resistance mechanisms (Int. J. Cancer 1991; 49: 688-95 [1991]).
Female or male BALB/c nu/nu (nude) mice are kept under sterile conditions (10 to 12 mice per Type III cage) with free access to food and water. Mice weigh between 20 and 25 grams at the time of tumor implantation. Tumors are established by subcutaneous injection of cells (minimum 2×10^6 cells in 100 μl PBS or medium) in carrier mice (4-8 mice per cell line). The resulting tumors are serially passaged for a minimum of three consecutive transplantations prior to start of treatment. Tumor fragments (approx. 25 mg) are implanted s.c. into the left flank of animals with a 13-gauge trocar needle while the mice are exposed to Forene (Abbott, Switzerland) anesthesia.
Tumor growth and body weights are monitored once or twice weekly. All treatments are administered intravenously (i.v.) and are initiated when a mean tumor volume of approximately 100 to 250 mm^3 is attained, depending upon the tumor type. Tumor volumes are determined using the formula […] (see Cancer Chemother. Pharmacol. 24:148-154, [1989]). Treatments with epothilone B vary the dose and the frequency of administration. Comparator agents are administered according to previously determined optimal treatment regimens. In addition to presenting changes in tumor volumes over the course of treatment, antitumor activity is expressed as T/C % (mean increase of tumor volumes of treated animals divided by the mean increase of tumor volumes of control animals multiplied by 100). Tumor. regression (%) represents the smallest mean tumor volume compared to the mean tumor volume at the start of treatment, according to the formula Regression (%)=(1−Vend/Vstart)×100(Vend=final mean tumor volume, Vstart=mean tumor volume at the start of treatment. Any animals in which the tumor has reached a size exceeding approximately 1.5 to 2.5 cm^3 are sacrificed. Details can be found below.
Tumor volumes are used as the primary indicator of activity of antitumor agents used alone or in combination, and changes in body weights are measured as an indicator of treatment tolerability.

[4] = 1 mg/kg i.v. once weekly for 3 weeks, day 34
[5] = 1 mg/kg once weekly for 3 weeks, extended observation, day 48
[6] = 2 mg/kg i.v. once weekly for 3 weeks, day 34
[7] = 2 mg/kg once weekly for 3 weeks, extended observation, day 48
[8] = 3 mg/kg i.v. once weekly for 3 weeks, day 34
[9] = 3 mg/kg once weekly for 3 weeks, extended observation, day 48
[10] = 3.5 mg/kg i.v. once weekly for 3 weeks, day 34
[11] = 3.5 mg/kg once weekly for 3 weeks, extended observation, day 48
[12] = 4 mg/kg, i.v. once on day 14, mean ± SEM

C/C(=C\c1csc(C)n1)[C@@H]1C[C@@H]2O[C@]2(C)CCC[C@H](C)[C@H](O)[C@@H](C)C(=O)C(C)(C)[C@@H](O)CC(=O)O1 [epothilone B]
% T/C [1, 4]: 74% and 74^*,** %
Dead/Total [1, 4]: 0/8
Delta % Body Weight [1, 4]: +10.8%
Delta Mean Tumor Vol. (mm^3 ± SEM) [1, 4]: 195 ± 21 mm^3
Dead/Total [1, 5]: 0/8
Delta % Body Weight [1, 5]: +12.6%
Delta Mean Tumor Vol. (mm^3 ± SEM) [1, 5]: 339 ± 24 mm^3
% T/C ([1]; 1 mg/kg once weekly for 3 weeks, extended observation, day 48 (week 5)): 72%
% T/C [1, 6]: 43% and 43*^,** %
Dead/Total [1, 6]: 0/8
Delta % Body Weight [1, 6]: +0.9%
Delta Mean Tumor Vol. (mm^3 ± SEM) [1, 6]: 113 ± 21 mm^3
Dead/Total [1, 7]: 0/8
Delta % Body Weight [1, 7]: +13.5%
Delta Mean Tumor Vol. (mm^3 ± SEM) [1, 7]: 232 ± 39 mm^3
% T/C ([1]; 2 mg/kg once weekly for 3 weeks, extended observation, day 48 (week 5)): 49* %
% T/C [1, 8]: 23% and 23*^,** %
Dead/Total [1, 8]: 0/8
Delta % Body Weight [1, 8]: −16.4%
Delta Mean Tumor Vol. (mm^3 ± SEM) [1, 8]: 60 ± 22 mm^3
Dead/Total [1, 9]: 0/8
Delta % Body Weight [1, 9]: +13.2%
Delta Mean Tumor Vol. (mm^3 ± SEM) [1, 9]: 75 ± 25 mm^3
% T/C ([1]; 3 mg/kg once weekly for 3 weeks, extended observation, day 48 (week 5)): 16*^,** %
body weight loss ([1]; 3 mg/kg once weekly): approximately 15%
% T/C [1, 10]: 15% and 15*^,** %
Dead/Total [1, 10]: 0/8
Delta % Body Weight [1, 10]: −14.6%
Delta Mean Tumor Vol. (mm^3 ± SEM) [1, 10]: 40 ± 15 mm^3
Dead/Total [1, 11]: 0/8
Delta % Body Weight [1, 11]: +9.7%
Delta Mean Tumor Vol. (mm^3 ± SEM) [1, 11]: 58 ± 25 mm^3
% T/C ([1]; 3.5 mg/kg once weekly for 3 weeks, extended observation, day 48 (week 5)): 12*^,** %
body weight loss ([1]; 3.5 mg/kg once weekly): approximately 15%
Body Weight % Change ([2]; 2 mg/kg single i.v. bolus): 4.2 ± 2.1%
Body Weight Δ (mean g ± SD) ([2]; 2 mg/kg single i.v. bolus): 1.0 ± 0.5 g
Mortalities ([2]; 2 mg/kg single i.v. bolus): 0/3
Body Weight % Change ([2]; 4 mg/kg single i.v. bolus): −1.7 ± 2.9%
Body Weight Δ (mean g ± SD) ([2]; 4 mg/kg single i.v. bolus): -0.4 ± 0.6 g
Mortalities ([2]; 4 mg/kg single i.v. bolus): 0/3
Body Weight % Change ([2]; 6 mg/kg single i.v. bolus): −4.2 ± 2.1%
Body Weight Δ (mean g ± SD) ([2]; 6 mg/kg single i.v. bolus): -1.0 ± 0.5 g
Mortalities ([2]; 6 mg/kg single i.v. bolus): 0/3
Body Weight % Change ([2]; 8 mg/kg single i.v. bolus): −16.8 ± 12.2%
Body Weight Δ (mean g ± SD) ([2]; 8 mg/kg single i.v. bolus): -3.8 ± 2.7 g
Mortalities ([2]; 8 mg/kg single i.v. bolus): 1/3
Body Weight % Change ([2]; 10 mg/kg single i.v. bolus): −23.7 ± 13.6%
Body Weight Δ (mean g ± SD) ([2]; 10 mg/kg single i.v. bolus): -5.6 ± 3.3 g
Mortalities ([2]; 10 mg/kg single i.v. bolus): 1/3
Body Weight % Change ([2]; 12 mg/kg single i.v. bolus): −22.9 ± 3.1%
Body Weight Δ (mean g ± SD) ([2]; 12 mg/kg single i.v. bolus): -5.1 ± 0.6 g
Mortalities ([2]; 12 mg/kg single i.v. bolus): 3/3
MTD ([2]; single dose i.v., nude mice): 6 mg/kg
Regression ([3]; 4 mg/kg, i.v. once on day 14): −61%
Survival (No. alive/total) ([3]; 4 mg/kg, i.v. once on day 14): 8/8
T/C ([3]; 4 mg/kg, i.v. once on day 14): tumor regressions; also recorded: Regression
% Body Weight Change [3, 12]: 2 ± 2%
D Body Weight [3, 12]: 0.4 ± 0.3 g
D Tumor Volume (mm^3) [3, 12]: −97 ± 25 mm^3
mortalities due to treatment ([3]; single 4 mg/kg dose): No mortalities due to treatment
